Experimental data from PMC7278695, “Dual SMO/BRAF Inhibition by Flavonolignans from Silybum marianum” (Antioxidants, 2020).
pIC50: −log10 of the molar value.

Columns and labels:
BRAF V600E kinase = molecular target: T1, BRAF V600E kinase (Homo sapiens, UniProt P15056, V600E); experiment: BRAF (V600E) Kinase Assay Kit, Kinase-Glo luminescence; assay type: biochemical; settings: 45 min at 30 °C
T1 construct: purchased BPS Bioscience #48688
Experimental: The activities of silybins and dehydrosilybins were tested using a commercial BRAF (V600E) (serine/threonine-protein kinase B-raf, V600E mutant) Kinase Assay Kit (#48688, BPS Bioscience, San Diego, CA, USA). Briefly, the BRAF (V600E) enzyme was incubated for 45 min at 30 °C with five different concentrations of each tested compound in logarithmic dilutions (1000, 100, 10, 1, and 0.1 µM). The reaction mixture was prepared following the instructions of the producer. The luminescence of the product of the enzyme activity was measured with the Kinase-Glo MAX Kit (#V6071, Promega, Madison, WI, USA) at a microplate luminometer (Synergy Multi-Mode Reader, BioTek, Winooski, VT, USA). Higher luminescent signal corresponded to […] enzyme activity. […] The reaction mixture without the test inhibitor represented the positive control, whereas the mixture without the test inhibitor and without the enzyme was used as blank.
The experiments for evaluation of the BRAF inhibition and cytotoxicity were performed in triplicate. The IC50 values were calculated by the BfROpenLab’s non-linear regression nodes in the KNIME analytics platform with the constant slope model.

[1] = test system: A-375 skin melanoma malignant cells with BRAF V600E mutation; experiment: MTT cytotoxicity assay, A-375; assay type: cell-based; settings: Homo sapiens, 72 h, read-out: IC50 (95% Confidence Interval), A-375
Experimental: (§1) The cytotoxic activity of the tested compounds was evaluated on non-tumorigenic human keratinocytes (HaCaT, #300493), skin melanoma malignant cells with BRAF V600E mutation (A-375, #300110), and skin epidermoid carcinoma cells (A-431, #300112), all purchased from CLS Cell Lines Service (Eppelheim, Germany). The cell lines were maintained in DMEM (#DMEM-HPA, Capricorn®, Ebsdorfergrund, Germany) supplemented with 10% fetal bovine serum (#FBS-HI-12A, Capricorn®, Ebsdorfergrund, Germany) and 4 mM L-glutamine (#G7513, Merck (Sigma-Aldrich), Germany) and incubated under standard conditions (5% CO2, 37 °C, 90%-95% humidity). The experiments were performed between passages 4 and 15 whereby the cells were sub-cultured every 4th day by splitting 1:8, according to the protocol of the biobank. Briefly, the cell cultures were rinsed with PBS without calcium and magnesium (PBS, #D8537, Merck (Sigma-Aldrich), Germany) and incubated for 8-10 min with accutase (#ACC-1B, Capricorn®, Ebsdorfergrund, Germany) as a detachment agent. After centrifugation, the cells were counted with trypan blue (0.4% solution, #T8154, Merck (Sigma-Aldrich), Germany). The antiproliferative effects of SilA, SilB, […], and DHSilB were tested using the MTT-dye (3-(4,5-dimethylthiazol-2-yl)-2,5-diphenyltetrazolium bromide) assay according to ISO 10993-5-2009, Annex C [26]. Briefly, the cells were seeded in 96-well plates at a density of 0.1 × 10^6/mL, incubated for 24 h at 37 °C (5% CO2), and treated with ten concentrations of the compounds ranging from 3.9 to 1000 μM in twofold serial dilutions. After 72 h, the MTT-dye (#M5655-1G, Merck (Sigma-Aldrich), Germany) was added to each sample at a final concentration of 0.05 mg/mL and the plates were incubated for 2 h at 37 °C (5% CO2). The supernatant was aspirated, and the formazan crystals formed as a product of the enzymatic MTT reduction were dissolved in 2-propranol (#33539, Merck (Sigma-Aldrich), Germany) supplemented with 5% formic acid (#300415, […]/Neuber, Sofia, Bulgaria). The absorbance of the product was measured at 550 nm (reference filter 690 nm) on an ELISA Reader BioTek ELx800 (BioTek). The experiments for evaluation of the BRAF inhibition and cytotoxicity were performed in triplicate. The IC50 values were calculated by the BfROpenLab's non-linear regression nodes in the KNIME analytics platform with the constant slope model.

[2] = test system: A-431 skin epidermoid carcinoma cells; experiment: MTT cytotoxicity assay, A-431; assay type: cell-based; settings: Homo sapiens, 72 h, read-out: IC50 (95% Confidence Interval), A-431
Experimental: as §1

[3] = test system: HaCaT non-tumorigenic human keratinocytes; experiment: MTT cytotoxicity assay, HaCaT; assay type: cell-based; settings: 72 h, read-out: IC50 (95% Confidence Interval), HaCaT
Experimental: as §1

[4] = test system: Hedgehog signaling pathway in NIH3T3 Shh-Light II cells; experiment: HH-dependent (Gli-responsive) luciferase reporter assay; assay type: cell-based; settings: SAG 200 nM, 48 h; for HH inhibitory activity (in words): maximum concentration of 30 μM
Experimental: The luciferase assay was carried out in NIH3T3 Shh-Light II cells, stably incorporating a Gli-responsive luciferase reporter and the pRL-TK Renilla, treated with SAG (SMO Agonist, 200 nM, Alexis Biochemicals Farmingdale, NY, USA) and the selected compounds for 48 h. Luciferases activities from P. pyralisand and R. reniformis were assayed with a dual-luciferase assay system, according to the manufacturer’s instructions (Biotium Inc., Hayward, CA, USA). The results were expressed as a P. pyralisand/R. reniformis luciferase ratio and represent the mean ± S.D. of three experiments, each performed in triplicate.
With respect to the SMO receptor, the HH inhibitory activity of the compounds, alone and in a racemate, was investigated in a luciferase reporter assay, which is widely used for characterizing HH inhibitors. The HH inhibitory activity of synthesized molecules was evaluated in NIH3T3 Shh Light II cells, stably incorporating a Gli-responsive firefly luciferase treated with the synthetic SMO agonist SAG [32], alone and in combination with the tested compounds.

[5] = molecular target: T2, Human Myc-DDK-tagged SMO in HEK293T cells (Homo sapiens, UniProt Q99835); experiment: BODIPY-Cyclopamine binding (displacement) assay; settings: BC 5 nM, 2 h at 37 °C
T2 construct: Myc; DDK (FLAG); expressed in transfected cells; host or cells: HEK293T
T2 sequence (Q99835 28-787): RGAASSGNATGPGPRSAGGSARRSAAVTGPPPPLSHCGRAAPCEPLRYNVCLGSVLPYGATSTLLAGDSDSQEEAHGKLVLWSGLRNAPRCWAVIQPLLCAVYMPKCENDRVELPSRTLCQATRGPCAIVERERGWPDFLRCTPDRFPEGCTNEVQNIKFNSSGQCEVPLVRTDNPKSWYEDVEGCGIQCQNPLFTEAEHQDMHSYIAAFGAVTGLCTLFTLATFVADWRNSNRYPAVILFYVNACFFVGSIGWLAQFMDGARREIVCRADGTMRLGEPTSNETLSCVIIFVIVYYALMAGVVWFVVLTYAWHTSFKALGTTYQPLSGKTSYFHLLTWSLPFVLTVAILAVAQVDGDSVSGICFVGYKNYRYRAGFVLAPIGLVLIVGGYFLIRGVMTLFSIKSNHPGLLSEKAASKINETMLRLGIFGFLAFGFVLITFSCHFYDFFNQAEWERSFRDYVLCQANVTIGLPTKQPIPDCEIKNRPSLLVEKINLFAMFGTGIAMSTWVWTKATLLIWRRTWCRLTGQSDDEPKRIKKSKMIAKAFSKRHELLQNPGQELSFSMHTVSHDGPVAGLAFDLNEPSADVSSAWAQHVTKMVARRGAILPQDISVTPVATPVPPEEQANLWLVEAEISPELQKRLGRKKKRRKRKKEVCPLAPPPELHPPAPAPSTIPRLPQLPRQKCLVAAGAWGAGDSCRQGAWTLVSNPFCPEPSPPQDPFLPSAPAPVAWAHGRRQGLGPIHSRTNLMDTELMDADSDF
Experimental: Human Myc-DDK-tagged SMO or empty vector was transfected in HEK293T cells. Cells were washed in phosphate-buffered saline (PBS) supplemented with 0.5% fetal bovine serum, fixed in 4% paraformaldehyde in PBS for 10 min, and incubated for 2 h at 37 °C, both in the same medium supplemented with BODIPY-Cyclopamine (BioVision Inc., San Francisco, CA, USA) (BC, 5 nM) and the studied compounds. The cells were permeabilized with Triton X100 (Sigma-Aldrich, St. Louis, MO, USA) 0.2%, and Hoechst reagent was used for cell nuclei staining. Data were expressed as a percentage of BC incorporation observed with BC alone.
To further investigate the binding properties of the selected compounds to the SMO receptor, we performed a displacement assay based on the use of BODIPY-Cyclopamine, which is known to interact with the binding site of SMO antagonists located within the heptahelical bundle of the receptor. To this aim, HEK293T cells were transiently transfected for expression of SMO and then incubated with BC in the presence or absence of increased amounts of DHSilA or DHSilAB.

T1 sequence (P15056 whole entry V600E): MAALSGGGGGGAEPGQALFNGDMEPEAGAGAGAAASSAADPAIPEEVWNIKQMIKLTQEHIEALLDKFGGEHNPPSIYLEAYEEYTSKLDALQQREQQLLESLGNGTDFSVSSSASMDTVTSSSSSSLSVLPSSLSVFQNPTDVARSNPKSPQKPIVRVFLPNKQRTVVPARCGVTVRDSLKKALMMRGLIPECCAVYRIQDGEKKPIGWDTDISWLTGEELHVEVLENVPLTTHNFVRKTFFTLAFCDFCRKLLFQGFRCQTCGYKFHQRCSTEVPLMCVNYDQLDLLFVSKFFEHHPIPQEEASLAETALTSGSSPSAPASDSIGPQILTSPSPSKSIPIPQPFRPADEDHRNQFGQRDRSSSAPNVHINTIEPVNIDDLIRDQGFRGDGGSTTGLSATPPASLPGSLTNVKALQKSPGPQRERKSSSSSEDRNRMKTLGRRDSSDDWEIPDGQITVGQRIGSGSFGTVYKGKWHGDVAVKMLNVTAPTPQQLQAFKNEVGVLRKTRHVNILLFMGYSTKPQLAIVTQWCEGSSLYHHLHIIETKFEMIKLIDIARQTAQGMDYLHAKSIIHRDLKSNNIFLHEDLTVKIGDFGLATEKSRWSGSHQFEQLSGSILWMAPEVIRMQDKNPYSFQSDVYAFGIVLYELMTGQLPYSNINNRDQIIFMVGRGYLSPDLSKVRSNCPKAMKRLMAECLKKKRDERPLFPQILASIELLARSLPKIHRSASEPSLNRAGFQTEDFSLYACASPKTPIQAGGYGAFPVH

pIC50 (BRAF V600E kinase) | Compound | pIC50 [1] | pIC50 [2] | pIC50 [3] | HH inhibitory activity (in words) [4] | pIC50 ([4]; read-out: IC50, HH inhibitory activity) | Inhibition of BODIPY-Cyclopamine (BC) binding to cells expressing SMO [5]
4.15 | COc1cc([C@H]2Oc3cc(-c4oc5cc(O)cc(O)c5c(=O)c4O)ccc3O[C@@H]2CO)ccc1O [DHSilA, 2,3-dehydrosilybin A] | 4.08 | 4.01 | 3.64 | high activity | 5.00 to 5.30 | inhibited BC binding to cells expressing SMO in a dose-dependent manner
4.60 | COc1cc([C@@H]2Oc3cc(-c4oc5cc(O)cc(O)c5c(=O)c4O)ccc3O[C@H]2CO)ccc1O [DHSilB, 2,3-dehydrosilybin B] | 4.07 | 3.89 | 3.79 | inactive |  | 
3.98 | COc1cc([C@H]2Oc3cc([C@H]4Oc5cc(O)cc(O)c5C(=O)[C@@H]4O)ccc3O[C@@H]2CO)ccc1O [SilA, silybin A] | 4.01 | 3.90 | 3.92 | mild activity |  | 
4.13 | COc1cc([C@@H]2Oc3cc([C@H]4Oc5cc(O)cc(O)c5C(=O)[C@@H]4O)ccc3O[C@H]2CO)ccc1O [SilB, silybin B] | 3.92 | 3.78 | 3.82 | mild activity |  | 
